pIC50: −log10 of the molar value.
molecular target: T1, FLT3 (Homo sapiens, UniProt P36888); assay: Reaction Biology NanoBRET target engagement assay, FLT3; type: cell-based; conditions: transfected HEK-293 cells
T1 sequence (P36888 27-993): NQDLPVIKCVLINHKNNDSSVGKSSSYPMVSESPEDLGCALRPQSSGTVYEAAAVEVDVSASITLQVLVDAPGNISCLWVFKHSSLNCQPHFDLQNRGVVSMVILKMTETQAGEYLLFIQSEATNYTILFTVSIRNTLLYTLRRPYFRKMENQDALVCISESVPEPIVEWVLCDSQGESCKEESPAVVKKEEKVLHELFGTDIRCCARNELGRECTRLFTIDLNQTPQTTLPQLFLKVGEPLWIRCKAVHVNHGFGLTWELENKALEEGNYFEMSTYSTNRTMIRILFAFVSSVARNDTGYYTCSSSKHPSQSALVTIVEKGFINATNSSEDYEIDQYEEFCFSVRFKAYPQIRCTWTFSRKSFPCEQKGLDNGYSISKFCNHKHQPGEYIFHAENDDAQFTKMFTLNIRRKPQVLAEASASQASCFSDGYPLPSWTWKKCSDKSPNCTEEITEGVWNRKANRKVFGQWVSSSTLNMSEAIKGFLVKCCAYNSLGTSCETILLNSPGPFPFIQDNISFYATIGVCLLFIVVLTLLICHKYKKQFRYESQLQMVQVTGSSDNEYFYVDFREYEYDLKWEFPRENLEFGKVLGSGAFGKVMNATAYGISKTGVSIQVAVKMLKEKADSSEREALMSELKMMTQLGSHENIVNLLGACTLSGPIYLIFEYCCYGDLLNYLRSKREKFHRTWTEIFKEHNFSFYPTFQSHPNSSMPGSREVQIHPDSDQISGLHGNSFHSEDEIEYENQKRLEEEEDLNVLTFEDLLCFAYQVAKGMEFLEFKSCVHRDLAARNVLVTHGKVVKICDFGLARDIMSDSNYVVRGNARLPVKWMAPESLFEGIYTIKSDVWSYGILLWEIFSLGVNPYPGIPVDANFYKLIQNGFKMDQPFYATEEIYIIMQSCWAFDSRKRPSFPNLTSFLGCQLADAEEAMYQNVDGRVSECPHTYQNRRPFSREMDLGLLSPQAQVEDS
Description: The NanoBRET assay measures kinase engagement in real time in the context of the intact cell. Unlike the previously described biochemical kinase assay methodologies in Examples 26-27, the NanoBRET assay measures the binding and activity characteristics under equilibrium conditions using full-length kinases in the presence of cellular concentrations of ATP in live, uncompromised cells. As such, the assay provides a more relevant assessment of kinase potency and selectivity that would be expected to be observed in the native cellular environment, where potency is often considerably lower than that observed in the isolated biochemical assays (Vasta, J. D. et al., (2018) Cell Chem. Biol. 25, 206-214). The assay uses a Kinase-NanoLuc® fusion vector expressing a kinase protein to which a luciferase tag has been added, a cell-permeant fluorescent NanoBRET™ tracer, a NanoLuc® substrate, and an extracellular NanoLuc® inhibitor. Upon expression of the luciferase-tagged kinase, cells will produce a strong BRET signal only in the presence of the NanoBRET™ tracer. The extracellular NanoLuc® inhibitor ensures that the BRET signal observed emanates only from live cells. Because the BRET signal has tight distance constraints, addition of the test compound will decrease the BRET signal if the compound competes with the NanoBRET™ tracer for binding to the kinase domain. Under the appropriate tracer conditions established by the manufacturer, quantitative intracellular affinity and relative potency can then be determined using Mass Action model equations.
HEK-293 cells were purchased from ATCC. FuGENEHD Transfection Reagent, Kinase-NanoLucfusion plasmids, Transfection Carrier DNA, NanoBRETTracers and dilution buffer, NanoBRETNano-Glo Substrate, Extracellular NanoLucInhibitor were obtained from Promega.
Assays were conducted following Promega assay protocol with some modifications. HEK-293 Cells were transiently transfected with Kinase-NanoLucFusion Vector DNA by FuGENEHD Transfection Reagent. Testing compounds were delivered into 384 well assay plate by Echo 550 (Labcytelnc, Sunnyvale, CA). Transfected cells were harvested and mixed with NanoBRETTracer Reagent and dispensed into 384 well plates and incubated at 37° C. in 5% CO2 cell culture incubator for 1 hour. The NanoBRETNano-Glo Substrate plus Extracellular NanoLucInhibitor Solution were added into the wells of the assay plate and incubated for 2-3 minutes at room temperature. The donor emission wavelength (460 nm) and acceptor emission wavelength (600 nm) were measured in the EnVisionplate reader. The BRET Ratios were calculated. BRET Ratio=[(Acceptor sample÷Donor sample)−(Acceptor no-tracer control÷Donor no-tracer control)]. The IC50 values of compounds were calculated with Prism GraphPad program.
NanoBRET™ Target Engagement Assay Protocol
1. Transient Transfection of HEK-293 Cells NanoLuc® Fusion Vector DNA
• 1). Cultivate HEK-293 cells (70-80% confluence) appropriately prior to assay. Trypsinize and collect HEK-293 cells. • 2). Prepare lipid: DNA complexes as follows: • a. Prepare a […] solution of DNA in Opti-MEM without serum that consists of the following ratios of carrier DNA and DNA encoding NanoLuc® fusion. 9.0 µg/mL of Transfection Carrier DNA, […] of NanoLuc fusion vector DNA and 1 mL of Opti-MEM without phenol red. Mix thoroughly. • b. Add 30 l of FuGENE HD Transfection Reagent into each milliliter of DNA mixture to form lipid: DNA complex. • c. Mix by inversion 10 times. • d. Incubate at ambient temperature for 20 minutes to allow complexes to form. • 3). In a sterile, conical tube, mix 1 part of lipid: DNA complex with 20 parts of HEK-293 cells in suspension. Mix gently by inversion 5 times. • 4). Dispense cells+lipid: DNA complex into a sterile tissue culture dish and incubate for 22-24 hours. 2. Addition of Test Compounds (dry plate shooting)
Each test compound is delivered from the compound source plate to the wells of 384-well white NBS plate by Echo 550.
3. […]

Question: With `CC(C)(C)c1cn2c(-c3nc(N[C@H]4CNC[C@@H]4F)c(F)cc3F)cnc2cn1` [Compound 125] as the compound, how does the pIC50 read?
Answer: 6.03

Question: `CC(C)(C)c1cn2c(-c3nc(N[C@@H]4CCCNC4)c(F)cc3F)cnc2cn1` [Compound 126, (R)-6-(6-(tert-butyl)imidazo[1,2-a]pyrazin-3-yl)-3,5-difluoro-N-(piperidin-3-yl)pyridin-2-amine] was tested. Which pIC50 did it give?
Answer: 8.10

Question: With `CC(C)(C)c1cn2c(-c3nc(N[C@H]4CNCC[C@@H]4F)c(F)cc3F)cnc2cn1` [Compound 127, 6-(6-(tert-butyl)imidazo[1,2-a]pyrazin-3-yl)-3,5-difluoro-N-((3S,4S)-4-fluoropiperidin-3-yl)pyridin-2-amine] as the compound, how does the pIC50 read?
Answer: 7.80

Question: How did the pIC50 turn out when `CC(C)(C)c1cn2c(-c3cccc(N[C@@H]4CCCNC4)n3)cnc2cn1` [Compound 129, (R)-6-(6-(tert-butyl)imidazo[1,2-a]pyrazin-3-yl)-N-(piperidin-3-yl)pyridin-2-amine] was run?
Answer: 7.92

Question: With `CC(C)(C)c1cn2c(-c3cccc(N[C@H]4CNCC[C@@H]4F)n3)cnc2cn1` [Compound 130, 6-(6-(tert-butyl)imidazo[1,2-a]pyrazin-3-yl)-N-((3S,4S)-4-fluoropiperidin-3-yl)pyridin-2-amine] as the compound, how does the pIC50 read?
Answer: 7.96

Reference: patent US12612410B2 (CHILDREN'S HOSPITAL MEDICAL CENTER, priority 2020, dated 2026)
